From US20210369846A1 (priority 2018, published 2021)
“And” between values parts separate entries of the source, which are not always exact repeats. Equal values may be shown once. “Also recorded” adds a separate entry of the source. Marks after values point to notes of the source that are not given here.

Experiments:
[1] = test system: HMEC-1 human vascular endothelial cells
male Sprague Dawley rats = assay: Red blood cells substitute in vivo test: gradual bleeding with compensation in rats under general anaesthesia; design: species or system rat; settings: for Amount of 5-min intervals (duration until cardiac cessation, per rat): exchange of 5% of blood volume per interval; for Amount of 5-min intervals (duration until cardiac cessation, per rat) / Amount of 5-min intervals expressed in min (per rat): individual rats; for Hematocrit at the end of the experiment: gradual decrease from physiological values; for Systolic blood pressure was >40 mm Hg for: tail cuff; for pH maintained at 7.3 up to: venous blood
Procedure: The study protocol was approved by the Local Ethical Committee (No. WAW2/057/2018), Warsaw University of Life Sciences, Warsaw, Poland. Study was carried out by the Department of Large Animal Diseases with the Clinic of the Faculty of Veterinary Medicine of the Warsaw University of Life Sciences in Warsaw. The study involved male Sprague Dawley rats (n=19; weight, 400±20 g; age, 8 to 12 weeks) obtained from the Mossakowski Medical Research Centre, Polish Academy of Sciences (Warsaw, Poland) divided into 4 non-equal groups (table below). The animals were kept in accordance with national animal welfare guidelines.
12 h before the experiment, feedstuffs were removed from animals' cages without restrictions to the water. Animals were weighted for circulating blood volume calculation according to Lee and Blaufox (1985) and anesthetized by intramuscular injection of the mixture of Ceptor—0.1 mL (Scanvet), Butomidor—0.1 mL (Richter Pharma AG) and Bioketan—0.1 mL (Vetoquinol). Within 2 min after injection, animals were placed in the dorsal position, on Thermo-Controlled Surgery Platform (Braintree Scientific, USA) and the catheter for blood collection was implanted.
A silicone catheter (Scientific Commodities INC, USA) was inserted into the left common jugular vein towards the heart and fastened with a tie (non-absorbable twisted strand, 4-0) for best fluid delivery and blood sampling. The catheter was kept filled with Ringer's fluid between the blood removals. The catheter's patency was maintained without the use of anti-clotting agents. The skin was not stitched, a swab moistened with saline solution was applied to the wound. Then the rats were transferred to a GN 1/1 electric heating plate (temp. 37±1° C., Bartscher, Poland), where a cuff was applied to the rat's tail to measure bloodless tail blood pressure (MLT125R, ADI, Australia), connected to the system NIBP (Non-Invasive Blood Pressure, ADI, Australia) and eight-channel PowerLab (ADI, Australia) and PC. Throughout the experiment, pulse and blood pressure were recorded in the Chart program (ADI, Australia). During the entire experiment, systolic and mean arterial blood readings were taken up to a blood pressure systolic threshold reading of 40 mm Hg between blood collections.
A total of 4 experiment variants were performed, as in the table above, using the method of gradual bleeding with compensation described in the previous experiment (5% of circulating blood). Compensations were used in subsequent experiments: Voluven fluid (Hydroxyethyl starch (HES 130/0.4), dextran 130 kDa, Fresenius Kabi) and formulations 2j3c, 2j3e and 2l3e (NanoSanguis) administered in Voluven fluid (concentration 0.5% w/v).
In venous blood samples, blood gas determinations (Siemens EPOC gasometer) were performed: pH, pCO2 (CO2 pressure, mm Hg), pO2 (oxygen pressure, mm Hg), cHCO3-(bicarbonate ion concentration, mmol/L), BE (ecf) (deficiency in blood buffering bases, mmol/L), hematocrit (Hct, %, less precise measurement than in a morphology analyzer), glucose (mg/dL), lactate (Lac, mmol/L), creatinine (Crea, mg/dL) followed by morphology (Mindray analyzer): hematocrit (hct, %), hemoglobin (g/L), red blood cell count (RBC, 10^12/L), white blood cell count (WBC, ×10^9/L) and platelet count (PLT, ×10^9/L). […] The results are given in the attached Excel spreadsheet. Blood for other biochemical analyses was centrifuged and frozen (−20° C.). Collected organ (liver, kidney, lung and heart) samples were fixed in buffered formalin, and after 48 hours. transferred to 70% ethyl alcohol and stored for histological examination. Histological examination was performed after routine staining of the hematoxylin and eosin sections.

[2] = Particle size distribution of O/W emulsions with Accusizer 780 Optical Particle Sizer; format: physicochemical; settings: O/W emulsion; footnote c: measured with Accusizer 780 Optical Particle Sizer
Procedure: In an exemplary method of preparation, 180 mg of the surfactant was dissolved in 9 mL of ultrapure water (MilliQ), then 1 mL of Perfluorodecalin was added to the solution. The mixture was sonicated using an UP400St Hielscher ultrasonic homogenizer. Operation parameters of the device: A=90% (amplitude), continuous operation mode, sonotrode type—H14. The process of ultrasonic homogenization was carried out for about 2 minutes, while the reaction vessel was intensely cooled using an ice bath. 10 mL of the o/w emulsion with 10% v/v of the perfluorinated phase relative to the aqueous phase was obtained. As can be appreciated, this method is merely exemplary, and other methods or preparation approaches may be used.
The emulsion particle size distribution was determined using the Accusizer 780 Optical Particle Sizer PSS NICOMP device. A series of dilutions of the analyzed emulsion were prepared: 10-fold, 100-fold and 1000-fold with ultrapure water (MilliQ), in triplicate. The particle size distribution of the 1000-fold diluted emulsion was examined, a minimum of 3 measurements were taken, preparing approximately 30 mL of the diluted emulsion for each one of them. The results were presented by the several values: the average diameter (given in μm), and the percentage number of particles in different ranges (for example, in the diameter range 0.5-2 μm, 2-5 μm, 5-10 μm, >10 μm). The values from these three measurements were averaged and standard deviation was calculated.

[3] = test system: L929 and HMEC-1 cell lines

| SMILES | Maximum Non-Hemolytic Concentration (blood) [%] | Maximum Non-Cytotoxic Concentration HMEC-1 [1] [%] | Maximum Non-Cytotoxic Concentration L929 (L929 mouse fibroblasts) | Average diameter [2] | further results |
| --- | --- | --- | --- | --- | --- |
| O=C(O)CCC(=O)OCCC(F)(F)C(F)(F)C(F)(F)C(F)(F)C(F)(F)C(F)(F)C(F)(F)C(F)(F)F [2j3c] | >2.00 | 0.5 | 0.25% |  | Lactate concentration above physiological values (limit 8.5 mmol/L) occurred at intervals (male Sprague Dawley rats; 0.5% w/v in Voluven): 15 intervals and 19 intervals; RBC at the end of the experiment (male Sprague Dawley rats; 0.5% w/v in Voluven): ~2e+12 L⁻¹; Survival of rats higher compared to the control group receiving Voluven (male Sprague Dawley rats; 0.5% w/v in Voluven): 7 intervals; WBC at the end of the experiment (male Sprague Dawley rats; 0.5% w/v in Voluven): ~1e+09 L⁻¹; Amount of 5-min intervals (duration until cardiac cessation, per rat) (male Sprague Dawley rats; 0.5% w/v in Voluven): 24 5-min intervals and 23 5-min intervals and 18 5-min intervals (2×) and 11 5-min intervals; Hematocrit at the end of the experiment (male Sprague Dawley rats; 0.5% w/v in Voluven): about 9%; Amount of 5-min intervals expressed in min (per rat) (male Sprague Dawley rats; 0.5% w/v in Voluven): 55 min and 120 min and 115 min and 90 min (2×); Systolic blood pressure was >40 mm Hg for (male Sprague Dawley rats; 0.5% w/v in Voluven): 12 intervals and 20 intervals; pH maintained at 7.3 up to (male Sprague Dawley rats; 0.5% w/v in Voluven): 13 intervals and 17 intervals |
| O=C([O-])CCC(=O)OCCC(F)(F)C(F)(F)C(F)(F)C(F)(F)C(F)(F)C(F)(F)C(F)(F)C(F)(F)F.[Na+] [2jNa] | 1 | 0.5 | <0.25% | 820 ± 20 ^c nm |  |
| O=C(O)CCC(=O)OCCC(F)(F)C(F)(F)C(F)(F)C(F)(F)C(F)(F)C(F)(F)C(F)(F)C(F)(F)F [2j3e] | 1 | 0.5 | 0.5% |  | Buffer balance deficiency (Be (ecf)) occurred at (male Sprague Dawley rats; 0.5% w/v in Voluven): 14-19 intervals; Lactate concentration above physiological values (limit 8.5 mmol/L) occurred at intervals (male Sprague Dawley rats; 0.5% w/v in Voluven): 13-19 intervals; Survival of rats higher compared to the control group receiving Voluven (male Sprague Dawley rats; 0.5% w/v in Voluven): 8 intervals; Amount of 5-min intervals (duration until cardiac cessation, per rat) (male Sprague Dawley rats; 0.5% w/v in Voluven): 15 5-min intervals and 17 5-min intervals and 21 5-min intervals and 25 5-min intervals and 29 5-min intervals; Hematocrit at the end of the experiment (male Sprague Dawley rats; 0.5% w/v in Voluven): about 5%; Amount of 5-min intervals expressed in min (per rat) (male Sprague Dawley rats; 0.5% w/v in Voluven): 145 min and 75 min and 85 min and 105 min and 125 min; pH maintained at 7.3 up to (male Sprague Dawley rats; 0.5% w/v in Voluven): 13 intervals and 20 intervals; Maintaining systolic pressure above the limit, comparing to other test groups (male Sprague Dawley rats; limit 40 mm Hg): longer |
| O=C(O)CSCCC(F)(F)C(F)(F)C(F)(F)C(F)(F)C(F)(F)C(F)(F)C(F)(F)C(F)(F)F [2a3d] | 0.02 | 0.1 | 0.2% | 640 ± 10 ^c nm |  |
| O=C([O-])CSCCC(F)(F)C(F)(F)C(F)(F)C(F)(F)C(F)(F)C(F)(F)C(F)(F)C(F)(F)F.[Na+] [2cNa] | 0.5 | 0.2 | 1% | 710 ± 20 ^c nm |  |
| O=C([O-])CSCCC(F)(F)C(F)(F)C(F)(F)C(F)(F)C(F)(F)C(F)(F)C(F)(F)C(F)(F)F.[K+] [2aK] | >2.00 | 1 | 1% | 770 ± 20 ^c nm |  |
| O=C([O-])CCC(=O)OCCC(F)(F)C(F)(F)C(F)(F)C(F)(F)C(F)(F)C(F)(F)C(F)(F)C(F)(F)F.[K+] [2jK] | >2.00 | 0.5 | <0.25% | 1090 ± 10 ^c nm |  |
| O=C(O)CCCC(=O)OCCC(F)(F)C(F)(F)C(F)(F)C(F)(F)C(F)(F)C(F)(F)C(F)(F)C(F)(F)F [2l3k] | >2.00 | >1.00 | >1.00% |  | Cytotoxic potential [3]: low cytotoxic potential |
| O=C(O)CSCCC(F)(F)C(F)(F)C(F)(F)C(F)(F)C(F)(F)C(F)(F)C(F)(F)C(F)(F)F [2a3b] | 0.25 | 0.5 | 0.5% | 640 ± 10 ^c nm |  |
| O=C(O)CCCC(=O)OCCC(F)(F)C(F)(F)C(F)(F)C(F)(F)C(F)(F)C(F)(F)C(F)(F)C(F)(F)F [2l3e] | >2.00 | >2.00 | >2.00% |  | Survival of rats higher compared to the control group receiving Voluven (male Sprague Dawley rats; 0.5% w/v in Voluven): 10 intervals; Amount of 5-min intervals (duration until cardiac cessation, per rat) (male Sprague Dawley rats; 0.5% w/v in Voluven): 10 5-min intervals and 13 5-min intervals and 21 5-min intervals and 28 5-min intervals and 31 5-min intervals; Amount of 5-min intervals expressed in min (per rat) (male Sprague Dawley rats; 0.5% w/v in Voluven): 155 min and 60 min and 75 min and 105 min and 140 min; Systolic blood pressure was >40 mm Hg for (male Sprague Dawley rats; 0.5% w/v in Voluven): 18-22 intervals; pH maintained at 7.3 up to (male Sprague Dawley rats; 0.5% w/v in Voluven): 20-21 intervals; Change caused slower in comparison to the control group (male Sprague Dawley rats; control: Voluven): pH decrease; also recorded: increase in pCO2; also recorded: decrease in buffer base deficiency; also recorded: increase of lactate and creatinine |
| O=C([O-])CCC(=O)OCCC(F)(F)C(F)(F)C(F)(F)C(F)(F)C(F)(F)C(F)(F)F.[K+] [2iK] | 0.02 | 0.25 | <0.25** % | 880 ± 40 ^c nm |  |
